Reference: patent US8871680B2, “Herbicidal compositions comprising 4-amino-3-chloro-5-fluoro-6-(4-chloro-2-fluoro-3-methoxyphenyl) pyridine-2-carboxylic acid or a derivative thereof and a di-methoxy-pyrimidine and derivatives thereof” (Dow AgroSciences LLC, priority 2012, dated 2014)

How the values were obtained:
[1] = system: LEFCH; assay: Postemergence foliar-applied weed control, direct seeded rice (greenhouse); assay type: in vivo, Leptochloa chinensis (L.) Nees
Excerpt: (§1) Seeds or nutlets of the desired test plant species were planted in a soil matrix prepared by mixing a loam or sandy loam soil (e.g., 28.6 percent silt, 18.8 percent clay, and 52.6 percent sand, with a pH of about 5.8 and an organic matter content of about 1.8 percent) and calcareous grit in an 80 to 20 ratio. The soil matrix was contained in plastic pots with a volume of 1 quart and a surface area of 83.6 square centimeters (cm^2). When required to ensure good germination and healthy plants, a fungicide treatment and/or other chemical or physical treatment was applied. The plants were grown for 8-22 days in a greenhouse with an approximate 14 hr photoperiod which was maintained at about 29° C. during the day and 26° C. during the night. Nutrients (Peters Excel® 15-5-15 5-Ca 2-Mg and iron chelate) were applied in the irrigation solution as needed and water was added on a regular basis. Supplemental lighting was provided with overhead metal halide 1000-Watt lamps as necessary. The plants were employed for testing when they reached the first through fourth true leaf stage.
(§2) Treatments consisted of the acid or esters of 4-amino-3-chloro-5-fluoro-6-(4-chloro-2-fluoro-3-methoxy-phenyl)pyridine-2-carboxylic acid (Compound A), each formulated as an SC (suspension concentrate), and various herbicidal components alone and in combination. Forms of compound A were applied on an acid equivalent basis.
(§3) Other herbicidal components were applied on an active ingredient basis and included the dimethoxy-pyrimidine acid acetolactate synthase (ALS)-inhibiting herbicides bispyribac-sodium formulated as Regiment® 80WP, pyribenzoxim (technical grade material), pyriminobac-methyl formulated as Hie-Clean® 1.2% GR dissolved in water, and pyriftalid (technical grade material).
(§4) Treatment requirements were calculated based upon the rates being tested, the concentration of active ingredient or acid equivalent in the formulation, and a 12 mL application volume at a rate of 187 L/ha.
(§5) For treatments comprised of formulated compounds, measured amounts of compounds were placed individually in 25 mL glass vials and diluted in a volume of 1.25% (v/v) Agri-Dex® crop oil concentrated to obtain 12× stock solutions. […] Application solutions were prepared by adding an appropriate amount of each stock solution (e.g., 1 mL) and diluted to the appropriate final concentrations with the addition of 10 mL of an aqueous mixture of 1.25% (v/v) crop oil concentrate so that the final spray solutions contained 1.25+/−0.005% (v/v) crop oil concentrate.
(§6) For treatments comprised of technical compounds, weighed amounts can be placed individually in 25 mL glass vials and dissolved in a volume of 97:3 v/v acetone/DMSO to obtain 12× stock solutions. […] Application solutions can be prepared by adding an appropriate amount of each stock solution (e.g., 1 mL) and diluted to the appropriate final concentrations with the addition of 10 mL of an aqueous mixture of 1.5% (v/v) crop oil concentrate so that the final spray solutions contain 1.25% (v/v) crop oil concentrate. When technical materials are used, the concentrated stock solutions can be added to the spray solutions so that the final acetone and DMSO concentrations of the application solutions are 16.2% and 0.5%, respectively.
(§7) For treatments comprised of formulated and technical compounds, weighed amounts of the technical materials were placed individually in 25 mL glass vials and dissolved in a volume of 97:3 v/v acetone/DMSO to obtain 12× stock solutions, and measured amounts of the formulated compounds were placed individually in 25 mL glass vials and diluted in a volume of 1.5% (v/v) crop oil concentrate or water to obtain 12× stock solutions. […]

[2] = system: ECHCG; assay: In-water applied weed control, transplanted paddy rice (greenhouse); assay type: in vivo, Echinochloa crusgalli (L.) Beauv.
Method: (§8) Weed seeds or nutlets of the desired test plant species were planted in puddled soil (mud) prepared by mixing a shredded, non-sterilized mineral soil (50.5 percent silt, 25.5 percent clay, and 24 percent sand, with a pH of about 7.6 and an organic matter content of about 2.9 percent) and water at a 1:1 volumetric ratio. The prepared mud was dispensed in 365 mL aliquots into 16-ounce (oz.) non-perforated plastic pots with a surface area of 86.59 square centimeters (cm^2) leaving a headspace of 3 centimeters (cm) in each pot. Mud was allowed to dry overnight prior to planting or transplanting. Rice seeds were planted in Sun Gro MetroMix® 306 planting mixture, which typically has a pH of 6.0 to 6.8 and an organic matter content of about 30 percent, in plastic plug trays. Seedlings at the second or third leaf stage of growth were transplanted into 860 mL of mud contained in 32-oz. non-perforated plastic pots with a surface area of 86.59 cm^2 4 days prior to herbicide application. The paddy was created by filling the headspace of the pots with 2.5 to 3 cm of water. When required to ensure good germination and healthy plants, a fungicide treatment and/or other chemical or physical treatment was applied. The plants were grown for 4-22 days in a greenhouse with an approximate 14 hr photoperiod which was maintained at about 29′C during the day and 26° C. during the night. Nutrients were added as Osmocote® (19:6:12, N:P:K+minor nutrients) at 2 g per 16-oz. pot and 4 g per 32-oz. pot. Water was added on a regular basis to maintain the paddy flood, and supplemental lighting was provided with overhead metal halide 1000-Watt lamps as necessary. The plants were employed for testing when they reached the first through fourth true leaf stage.
(§9) Treatments consisted of the acid or esters of 4-amino-3-chloro-5-fluoro-6-(4-chloro-2-fluoro-3-methoxy-phenyl)pyridine-2-carboxylic acid (compound A) each formulated as an SC and various herbicidal components alone and in combination. Forms of compound A were applied on an acid equivalent basis.
(§10) Other herbicidal components were applied on an active ingredient basis and included the dimethoxy-pyrimidine acid acetolactate synthase (ALS)-inhibiting herbicides bispyribac-sodium formulated as Regiment® 80 WP, pyriminobac-methyl formulated as Hie Clean®, and pyriftalid (technical grade material).
(§11) Treatment requirements for each compound or herbicidal component were calculated based upon the rates being tested, the concentration of active ingredient or acid equivalent in the formulation, an application volume of 2 mL per component per pot, and an application area of 86.59 cm^2 per pot.
(§12) For formulated compounds, a measured amount was placed in an individual 100 or 200 mL glass vial and was dissolved in a volume of 1.25% (v/v) Agri-Dex® crop oil concentrate to obtain application solutions.
(§13) For technical grade compounds, a weighed amount was placed in an individual 100 to 200 mL glass vial and was dissolved in a volume of acetone to obtain concentrated stock solutions. […] The concentrated stock solutions obtained were diluted with an equivalent volume of an aqueous mixture containing 2.5% (v/v) crop oil concentrate so that the final application solutions contained 1.25% (v/v) crop oil concentrate.
(§14) Applications were made by injecting with a pipetter appropriate amounts of the application solutions, individually and sequentially, into the aqueous layer of the paddy.
(§15) Control plants were treated in the same manner with the solvent blank. Applications were made so that all treated plant material received the same concentrations of acetone and crop oil concentrate.
(§16) The treated plants and control plants were placed in a greenhouse as described above and water was added as needed to maintain a paddy flood. […]

[3] = system: ECHOR; assay: as above; assay type: in vivo, Echinochloa oryzoides (Ard.) Fritsch
Method: as §8, §9, §10, §11, §12, §13, §14
(§17) Control plants were treated in the same manner with the solvent blank. […]

[4] = system: LEFCH; assay: as above; assay type: in vivo, Leptochloa chinensis (L.) Nees; settings: 40 gai/ha
Method: as §8, §9, §10, §11, §12, §13, §14, §17

[5] = system: SCPMA; assay: as above; assay type: in vivo, Bolboschoenus maritimus (L.) Palla
Method: as §8, §9, §10, §11, §12, §13, §14, §15, §16

[6] = system: CYPRO; assay: as above; assay type: in vivo, Cyperus rotundus L.
Method: as §8, §9, §10, §11, §12, §13, §14, §15, §16

[7] = system: ECHCG; assay: Postemergence foliar-applied weed control, direct seeded rice (greenhouse); assay type: in vivo, Echinochloa crusgalli (L.) Beauv.
Excerpt: as §1, with “stage. […]” for “stage.”
as §4
For treatments comprised of formulated compounds, measured amounts of compounds were placed individually in 25 mL glass vials and diluted in a volume of 1.25% (v/v) Agri-Dex® crop oil concentrated to obtain 12× stock solutions. […]
as §7

[8] = system: IPOHE; assay: as above; assay type: in vivo, Ipomoea hederacea Jacq.
Excerpt: as §1, §2, §3, §4, §5, §6, §7

[9] = system: FIMMI; assay: In-water applied weed control, transplanted paddy rice (greenhouse); assay type: in vivo, Fimbristylis miliacea (L.) Vahl; settings: 4.38 gae/ha
Method: as §8, §9, §10, §11, §12, §13, §14, §15, §16

SMILES: COc1cc(OC)nc(Oc2cccc(Oc3nc(OC)cc(OC)n3)c2C(=O)[O-])n1.[Na+] [Bispyribac-Sodium, sodium 2,6-bis[(4,6-dimethoxy-2-pyrimidinyl)oxy]benzoate, reference compound]
- Visual Weed Control (%)-20 DAA LEFCH Obs ([1]; 7 gai/ha): 0%
- Visual Weed Control (%)-20 DAA LEFCH Obs ([1]; 14 gai/ha): 0%
- Visual Weed Control (%) - 20 DAA ECHCG Obs ([2]; 10 gai/ha): 20%
- Visual Weed Control (%) - 20 DAA ECHCG Obs ([2]; 20 gai/ha): 35%
- Visual Weed Control (%) - 20 DAA ECHCG Obs ([2]; 40 gai/ha): 30%
- Visual Weed Control (%)-20 DAA ECHOR Obs ([3]; 40 gai/ha, Table 7): 30%
- Visual Weed Control (%)-20 DAA ECHOR Obs ([3]; 40 gai/ha, Table 9): 30%
- Visual Weed Control (%)-20 DAA LEFCH Obs [4]: 28%
- Visual Weed Control (%)-20 DAA SCPMA Obs ([5]; 40 gai/ha, Table 7): 38%
- Visual Weed Control (%)-20 DAA SCPMA Obs ([5]; 40 gai/ha, Table 8): 38%
- Visual Weed Control (%)-20 DAA SCPMA Obs ([5]; 40 gai/ha, Table 9): 38%
- Visual Weed Control (%)-20 DAA CYPRO Obs ([6]; 10 gai/ha): 0%
- Visual Weed Control (%)-20 DAA CYPRO Obs ([6]; 20 gai/ha): 0%

SMILES: COc1c(Cl)ccc(-c2nc(C(=O)OCc3ccccc3)c(Cl)c(N)c2F)c1F [Compound A Benzyl Ester]
- Visual Weed Control (%)-24 DAA LEFCH Obs ([1]; 4.38 gae/ha): 0%
- Visual Weed Control (%)-20 DAA LEFCH Obs ([1]; 8.75 gae/ha): 10%
- Visual Weed Control (%)-24 DAA LEFCH Obs ([1]; 8.75 gae/ha): 0%
- Visual Weed Control (%)-20 DAA LEFCH Obs ([1]; 17.5 gae/ha): 20%
- Visual Weed Control (%)-22 DAA LEFCH Obs ([1]; 17.5 gae/ha): 25%
- Visual Weed Control (%)-24 DAA LEFCH Obs ([1]; 17.5 gae/ha): 10%
- Visual Weed Control (%) - 20 DAA ECHCG Obs ([7]; 8 gae/ha): 75%
- Visual Weed Control (%) - 20 DAA ECHCG Obs ([7]; 16 gae/ha): 85%
- Visual Weed Control (%)-24 DAA IPOHE Obs ([8]; 4.38 gae/ha): 10%
- Visual Weed Control (%)-24 DAA IPOHE Obs ([8]; 8.75 gae/ha): 15%
- Visual Weed Control (%)-21 DAA IPOHE Obs ([8]; 17.5 gae/ha): 43%
- Visual Weed Control (%)-24 DAA IPOHE Obs ([8]; 17.5 gae/ha): 30%
- Visual Weed Control (%)-21 DAA SCPMA Obs ([5]; 4.38 gae/ha): 0%
- Visual Weed Control (%)-21 DAA SCPMA Obs ([5]; 8.75 gae/ha): 0%
- Visual Weed Control (%)-20 DAA SCPMA Obs ([5]; 35 gae/ha): 0%
- Visual Weed Control (%)-20 DAA SCPMA Obs ([5]; 35 gae/ha, Table 11): 0%
- Visual Weed Control (%)-20 DAA SCPMA Obs ([5]; 70 gae/ha): 0%
- Visual Weed Control (%)-20 DAA CYPRO Obs ([6]; 4.38 gae/ha): 50%
- Visual Weed Control (%)-21 DAA CYPRO Obs ([6]; 4.38 gae/ha, Table 11): 0%
- Visual Weed Control (%)-21 DAA CYPRO Obs ([6]; 4.38 gae/ha, Table 13): 30%
- Visual Weed Control (%)-21 DAA CYPRO Obs ([6]; 8.75 gae/ha, Table 11): 20%
- Visual Weed Control (%)-21 DAA CYPRO Obs ([6]; 8.75 gae/ha, Table 13): 60%
- Visual Weed Control (%)-21 DAA CYPRO Obs ([6]; 17.5 gae/ha): 10%
- Visual Weed Control (%)-21 DAA FIMMI Obs [9]: 20%

SMILES: CCCCOC(=O)c1nc(-c2ccc(Cl)c(OC)c2F)c(F)c(N)c1Cl [Compound A n-Butyl Ester]
- Visual Weed Control (%)-20 DAA ECHOR Obs ([3]; 35 gae/ha): 35%
- Visual Weed Control (%)-20 DAA ECHOR Obs ([3]; 70 gae/ha): 40%
- Visual Weed Control (%)-20 DAA SCPMA Obs ([5]; 70 gae/ha): 0%
